{
  "source": "the supplement of paper PMC10307832",
  "test_in_all_cases": "relative viability (nuclei count vs DMSO), 5 days (fraction); higher = more cells survive",
  "key": {"[1]": {"compound": "COc1cc2ncn(-c3cc(OCc4ccccc4C(F)(F)F)c(C(N)=O)s3)c2cc1OC", "outline": "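Acceptance criteria were a control CV below 25% and at least one doubling per plate. Lung cancer cell lines in 1536-well plates got five library-drug doses (not always all listed) √10 apart by pinning and were left 5 days with no medium change. Viability divides treated-well nuclei by vehicle-well nuclei and is the median across plates. Nuclei were counted by MetaXpress from 4× Hoechst images.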"}, "[2]": {"compound": "COc1cc2ncn(-c3cc(OCc4ccccc4C(F)(F)F)c(C(N)=O)s3)c2cc1OC + CC(C)C[C@H](NC(=O)[C@H](Cc1ccccc1)NC(=O)c1cnccn1)B(O)O [Bortezomib] (partner 0.002 µM)", "outline": "(§1)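 One day after seeding in 1536-well plates, lung cancer cell lines were dosed by pin tool. Dosing was either single-drug or a fixed anchor-drug dose plus five library-drug doses (not always all listed) in √10 steps. After 5 days, nuclei were stained in one fix-and-stain step and counted on 4× images, and relative viability is the nuclei count of treated wells over that of vehicle wells, given as the median of duplicate plates.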"}, "[3]": {"compound": "COc1cc2ncn(-c3cc(OCc4ccccc4C(F)(F)F)c(C(N)=O)s3)c2cc1OC + CC1(C)CCC(c2ccc(Cl)cc2)=C(CN2CCN(c3ccc(C(=O)NS(=O)(=O)c4ccc(N[C@H](CCN5CCOCC5)CSc5ccccc5)c(S(=O)(=O)C(F)(F)F)c4)cc3)CC2)C1 [Navitoclax] (partner 0.5 µM)", "outline": "as §1"}, "[4]": {"compound": "COc1cc2ncn(-c3cc(OCc4ccccc4C(F)(F)F)c(C(N)=O)s3)c2cc1OC + COc1cc2c(Oc3ccc(NC(=O)C4(C(=O)Nc5ccc(F)cc5)CC4)cc3F)ccnc2cc1OCCCN1CCOCC1 [Foretinib] (partner 0.25 µM)", "outline": "as §1"}, "[5]": {"compound": "COc1cc2ncn(-c3cc(OCc4ccccc4C(F)(F)F)c(C(N)=O)s3)c2cc1OC + CS(=O)(=O)CCNCc1ccc(-c2ccc3ncnc(Nc4ccc(OCc5cccc(F)c5)c(Cl)c4)c3c2)o1 [Lapatinib] (partner 2 µM)", "outline": "as §1"}, "[6]": {"compound": "COc1cc2ncn(-c3cc(OCc4ccccc4C(F)(F)F)c(C(N)=O)s3)c2cc1OC + CS(=O)(=O)N1CCN(Cc2cc3nc(-c4cccc5[nH]ncc45)nc(N4CCOCC4)c3s2)CC1 [Pictilisib] (partner 1 µM)", "outline": "as §1"}, "[7]": {"compound": "COc1cc2ncn(-c3cc(OCc4ccccc4C(F)(F)F)c(C(N)=O)s3)c2cc1OC + C[C@@H](Oc1cc(-c2cnn(C3CCNCC3)c2)cnc1N)c1c(Cl)ccc(F)c1Cl [Crizotinib] (partner 1 µM)", "outline": "as §1"}, "[8]": {"compound": "COc1cc2ncn(-c3cc(OCc4ccccc4C(F)(F)F)c(C(N)=O)s3)c2cc1OC + C[C@]1(O)C[C@@H](c2nc(-c3ccc4ccc(-c5ccccc5)nc4c3)c3c(N)nccn32)C1 [Linsitinib] (partner 1 µM)", "outline": "as §1"}, "[9]": {"compound": "COc1cc2ncn(-c3cc(OCc4ccccc4C(F)(F)F)c(C(N)=O)s3)c2cc1OC + Cc1nc(NC(=O)N2CCC[C@H]2C(N)=O)sc1-c1ccnc(C(C)(C)C(F)(F)F)c1 [Alpelisib] (partner 2 µM)", "outline": "as §1"}, "[10]": {"compound": "COc1cc2ncn(-c3cc(OCc4ccccc4C(F)(F)F)c(C(N)=O)s3)c2cc1OC + O=C(c1cc(Cc2n[nH]c(=O)c3ccccc23)ccc1F)N1CCN(C(=O)C2CC2)CC1 [Olaparib] (partner 8 µM)", "outline": "as §1"}},
  "data": [
    {"cell line": "NCI-H1299", "values": [
      {"measurement": "relative viability", "setting": "[1]; 0.05 µM", "value": 1.01},
      {"measurement": "relative viability", "setting": "[1]; 0.1581 µM", "value": 1.02},
      {"measurement": "relative viability", "setting": "[1]; 0.5 µM", "value": 0.718},
      {"measurement": "relative viability", "setting": "[1]; 1.581 µM", "value": 0.269},
      {"measurement": "relative viability", "setting": "[1]; 5 µM", "value": 0.318},
      {"measurement": "relative viability", "setting": "[2]; first compound 0.05 µM", "value": 0.985},
      {"measurement": "relative viability", "setting": "[2]; first compound 0.1581 µM", "value": 1.01},
      {"measurement": "relative viability", "setting": "[2]; first compound 0.5 µM", "value": 0.856},
      {"measurement": "relative viability", "setting": "[2]; first compound 1.581 µM", "value": 0.263},
      {"measurement": "relative viability", "setting": "[2]; first compound 5 µM", "value": 0.675},
      {"measurement": "relative viability", "setting": "[3]; first compound 0.05 µM", "value": 1.06},
      {"measurement": "relative viability", "setting": "[3]; first compound 0.1581 µM", "value": 1.09},
      {"measurement": "relative viability", "setting": "[3]; first compound 0.5 µM", "value": 0.833},
      {"measurement": "relative viability", "setting": "[3]; first compound 1.581 µM", "value": 0.232},
      {"measurement": "relative viability", "setting": "[3]; first compound 5 µM", "value": 0.238},
      {"measurement": "relative viability", "setting": "[4]; first compound 0.05 µM", "value": 1.1},
      {"measurement": "relative viability", "setting": "[4]; first compound 0.1581 µM", "value": 1.07},
      {"measurement": "relative viability", "setting": "[4]; first compound 0.5 µM", "value": 0.664},
      {"measurement": "relative viability", "setting": "[4]; first compound 1.581 µM", "value": 0.255},
      {"measurement": "relative viability", "setting": "[4]; first compound 5 µM", "value": 0.257},
      {"measurement": "relative viability", "setting": "[5]; first compound 0.05 µM", "value": 0.984},
      {"measurement": "relative viability", "setting": "[5]; first compound 0.1581 µM", "value": 0.92},
      {"measurement": "relative viability", "setting": "[5]; first compound 0.5 µM", "value": 0.599},
      {"measurement": "relative viability", "setting": "[5]; first compound 1.581 µM", "value": 0.314},
      {"measurement": "relative viability", "setting": "[5]; first compound 5 µM", "value": 0.312},
      {"measurement": "relative viability", "setting": "[6]; first compound 0.05 µM", "value": 0.77},
      {"measurement": "relative viability", "setting": "[6]; first compound 0.1581 µM", "value": 0.699},
      {"measurement": "relative viability", "setting": "[6]; first compound 0.5 µM", "value": 0.18},
      {"measurement": "relative viability", "setting": "[6]; first compound 1.581 µM", "value": 0.142},
      {"measurement": "relative viability", "setting": "[6]; first compound 5 µM", "value": 0.132},
      {"measurement": "relative viability", "setting": "[7]; first compound 0.05 µM", "value": 0.982},
      {"measurement": "relative viability", "setting": "[7]; first compound 0.1581 µM", "value": 0.939},
      {"measurement": "relative viability", "setting": "[7]; first compound 0.5 µM", "value": 0.572},
      {"measurement": "relative viability", "setting": "[7]; first compound 1.581 µM", "value": 0.305},
      {"measurement": "relative viability", "setting": "[7]; first compound 5 µM", "value": 0.329},
      {"measurement": "relative viability", "setting": "[8]; first compound 0.05 µM", "value": 0.984},
      {"measurement": "relative viability", "setting": "[8]; first compound 0.1581 µM", "value": 1.12},
      {"measurement": "relative viability", "setting": "[8]; first compound 0.5 µM", "value": 0.636},
      {"measurement": "relative viability", "setting": "[8]; first compound 1.581 µM", "value": 0.245},
      {"measurement": "relative viability", "setting": "[8]; first compound 5 µM", "value": 0.253},
      {"measurement": "relative viability", "setting": "[9]; first compound 0.05 µM", "value": 1.04},
      {"measurement": "relative viability", "setting": "[9]; first compound 0.1581 µM", "value": 0.979},
      {"measurement": "relative viability", "setting": "[9]; first compound 0.5 µM", "value": 0.788},
      {"measurement": "relative viability", "setting": "[9]; first compound 1.581 µM", "value": 0.326},
      {"measurement": "relative viability", "setting": "[9]; first compound 5 µM", "value": 0.654},
      {"measurement": "relative viability", "setting": "[10]; first compound 0.05 µM", "value": 0.962},
      {"measurement": "relative viability", "setting": "[10]; first compound 0.1581 µM", "value": 0.921},
      {"measurement": "relative viability", "setting": "[10]; first compound 0.5 µM", "value": 0.431},
      {"measurement": "relative viability", "setting": "[10]; first compound 1.581 µM", "value": 0.223},
      {"measurement": "relative viability", "setting": "[10]; first compound 5 µM", "value": 0.19}
    ]}
  ]
}
